Assay results taken from patent US20250002473A1, “QUINOXALINE DERIVED SULFONAMIDES WITH EGFR DEGRADATION ACTIVITIES AND THEIR USES THEREOF” (Accutar Biotechnology Inc., priority 2023, published 2025).
Like-named read-outs stand apart in the source and are kept apart here.

Legend:
Format in all cases: cell-based
NCl-H292 (EGFR_WT) = biological target: T1, NCl-H292 (EGFR_WT) (Homo sapiens, UniProt P00533); test: EGFR degradation assay (western blot), NCl-H292 cells; conditions: Table 5; NCI-H292 cells (EGFR_WT), 24 h
T1 construct: endogenous in cells; host or cells: A431, NCI-H2073, NCI-H292
Experimental: A431 (EGFR_WT), NCl-H2073 (EGFR_WT), NCl-H292 (EGFR_WT), BaF3_YVAM (Her2_A775insYVAM), BaF3_SVD (EGFR_D770insSVD), BaF3_ASV (EGFR_A776inASV), or BaF3_DTC (EGFR_Exon19del/T790M/C797S) cells were seeded in a 24-well plate at a density of 4×10^5 cells per well for EGFR WT cells and 8× cells per well for EGFR or Her2 mutant cells, and the plates were incubated overnight. The cells were treated with the desired compounds for 24 h. The culture medium was removed, and 100 μL of RIPA buffer (Beyotime, P0013B) containing 1% Protease Inhibitor Cocktail (Bimake, B14001), 1% Phosphatase Inhibitor Cocktail 2 (Sigma, P5726), and 1% Phosphatase Inhibitor Cocktail 3 (Sigma, P0044) were added to lyse the cells. Then, the cell lysates were transferred to 1.5 mL microcentrifuge tubes and centrifuged at 12,000 rpm and 4° C. for 30 min. The supernatants were transferred into new tubes, and the protein concentration was determined using the BCA protein quantification method. All samples were diluted to the same concentration using RIPA buffer, loading buffer was added, samples were denatured, and 15 μg of protein per lane was loaded onto a SurePAGE 4-20% Bis-Tris gel. Samples were separated via electrophoresis in MOPS running buffer at 180 V for 100 min. […] Fluorescence was detected using the Odyssey CLx Imaging System, and the data were analyzed with Empiria Studio Software and GraphPad Prism 9. […]

BaF3_YVMA = test: Cell growth inhibition assay (CellTiter-Glo), BaF3_YVMA
Experimental: Cells were seeded in a 96-well plate (Corning 3610) with 90 μL of culture medium per well, and plates were incubated at 37° C. overnight. A 1,000× DMSO stock solution of the desired compound was prepared the following day. A compound dilution plate was prepared by diluting the stock solution 1:100 in the corresponding cell culture medium, 10 μL of the diluted compound solution was added to each 96-well plate well containing the seeded cells. […] The content of the wells was mixed by shaking continuously for 10 min, and luminescence was measured using Envision (PerkinElmer). The data were analyzed with GraphPad Prism 9 (see FIG. 50).
Table 6, Table 7, and Table 8 list the cell growth inhibition results, where Gls0 represents the compound concentration to cause 50% cell growth inhibition in comparison with DMSO.

[1] = tested on: BaF3_DTC (EGFR_Exon19del/T790M/C797S); test: EGFR degradation assay (western blot), BaF3_DTC cells
Outline: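 Cells seeded overnight, then exposed to compounds for 24 h; lysates run on western blot, EGFR probed with tubulin loading control and fluorescent secondary detection. DC50 = concentration giving 50% EGFR degradation.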

[2] = biological target: T2, BaF3_SVD (EGFR_D770insSVD) (Homo sapiens, UniProt P00533, INS770SVD); test: EGFR degradation assay (western blot), BaF3_SVD cells
T2 construct: expressed in transfected cells; host or cells: Ba/F3 (engineered)
Experimental: A431 (EGFR_WT), NCl-H2073 (EGFR_WT), NCl-H292 (EGFR_WT), BaF3_YVAM (Her2_A775insYVAM), BaF3_SVD (EGFR_D770insSVD), BaF3_ASV (EGFR_A776inASV), or BaF3_DTC (EGFR_Exon19del/T790M/C797S) cells were seeded in a 24-well plate at a density of 4×10^5 cells per well for EGFR WT cells and 8× cells per well for EGFR or Her2 mutant cells, and the plates were incubated overnight. The cells were treated with the desired compounds for 24 h. The culture medium was removed, and 100 μL of RIPA buffer (Beyotime, P0013B) containing 1% Protease Inhibitor Cocktail (Bimake, B14001), 1% Phosphatase Inhibitor Cocktail 2 (Sigma, P5726), and 1% Phosphatase Inhibitor Cocktail 3 (Sigma, P0044) were added to lyse the cells. Then, the cell lysates were transferred to 1.5 mL microcentrifuge tubes and centrifuged at 12,000 rpm and 4° C. for 30 min. The supernatants were transferred into new tubes, and the protein concentration was determined using the BCA protein quantification method. All samples were diluted to the same concentration using RIPA buffer, loading buffer was added, samples were denatured, and 15 μg of protein per lane was loaded onto a SurePAGE 4-20% Bis-Tris gel. Samples were separated via electrophoresis in MOPS running buffer at 180 V for 100 min. Then, proteins were transferred onto PVDF membranes using the MiniBlot™ Electrophoretic Transfer Cell Device (Beyotime, E6050). The membrane was blocked using block buffer (LI-COR 927-60001) to prevent non-specific binding. The membrane was incubated with primary antibodies (1:500 dilution, EGFR-CST4405, 1:2000 dilution, Tubulin-ABclonal #AC021) at 4° C. overnight. The membrane was washed three times with 1× TBST buffer for 15 min each. The membrane was incubated with secondary antibodies IRDye 680RD Goat anti-Rabbit IgG Secondary Antibody (1:2000 dilution, LI-COR 926-68071) and IRDye 800CW Goat anti-Mouse IgG Secondary Antibody (1:2000 dilution, LI-COR 926-32210). […] Fluorescence was detected using the Odyssey CLx Imaging System, and the data were analyzed with Empiria Studio Software and GraphPad Prism 9. […]

T2 sequence (P00533 with tags, fused parts or gaps INS770SVD): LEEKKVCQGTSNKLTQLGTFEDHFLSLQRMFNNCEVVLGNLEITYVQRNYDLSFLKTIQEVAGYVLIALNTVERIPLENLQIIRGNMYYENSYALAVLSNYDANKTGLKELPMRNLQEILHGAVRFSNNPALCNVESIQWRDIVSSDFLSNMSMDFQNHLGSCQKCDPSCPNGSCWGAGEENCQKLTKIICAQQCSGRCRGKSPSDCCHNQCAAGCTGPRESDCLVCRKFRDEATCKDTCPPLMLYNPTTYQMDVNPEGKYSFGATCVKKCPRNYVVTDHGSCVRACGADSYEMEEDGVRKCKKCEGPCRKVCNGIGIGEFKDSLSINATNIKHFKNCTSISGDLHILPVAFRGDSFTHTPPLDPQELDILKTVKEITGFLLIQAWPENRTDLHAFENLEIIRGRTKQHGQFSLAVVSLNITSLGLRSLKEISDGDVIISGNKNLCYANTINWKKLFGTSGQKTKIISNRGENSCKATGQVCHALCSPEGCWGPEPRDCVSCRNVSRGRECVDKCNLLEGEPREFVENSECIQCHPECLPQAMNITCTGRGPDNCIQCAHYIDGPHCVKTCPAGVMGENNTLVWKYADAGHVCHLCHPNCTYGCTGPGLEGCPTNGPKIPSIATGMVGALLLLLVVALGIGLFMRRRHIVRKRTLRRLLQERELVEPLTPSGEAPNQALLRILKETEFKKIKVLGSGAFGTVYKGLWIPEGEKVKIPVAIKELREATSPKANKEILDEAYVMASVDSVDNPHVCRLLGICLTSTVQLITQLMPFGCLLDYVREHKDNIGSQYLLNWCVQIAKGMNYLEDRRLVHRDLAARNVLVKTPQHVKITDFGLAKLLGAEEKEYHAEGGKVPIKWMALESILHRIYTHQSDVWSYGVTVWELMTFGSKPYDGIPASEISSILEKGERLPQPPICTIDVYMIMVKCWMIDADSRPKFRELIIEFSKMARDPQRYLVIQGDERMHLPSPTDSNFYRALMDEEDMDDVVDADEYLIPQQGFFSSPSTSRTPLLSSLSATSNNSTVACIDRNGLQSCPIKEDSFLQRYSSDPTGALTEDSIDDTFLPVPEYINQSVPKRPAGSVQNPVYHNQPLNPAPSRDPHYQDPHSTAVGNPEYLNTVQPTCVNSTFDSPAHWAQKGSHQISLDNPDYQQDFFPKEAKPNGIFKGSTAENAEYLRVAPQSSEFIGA
T1 sequence (P00533 25-1210): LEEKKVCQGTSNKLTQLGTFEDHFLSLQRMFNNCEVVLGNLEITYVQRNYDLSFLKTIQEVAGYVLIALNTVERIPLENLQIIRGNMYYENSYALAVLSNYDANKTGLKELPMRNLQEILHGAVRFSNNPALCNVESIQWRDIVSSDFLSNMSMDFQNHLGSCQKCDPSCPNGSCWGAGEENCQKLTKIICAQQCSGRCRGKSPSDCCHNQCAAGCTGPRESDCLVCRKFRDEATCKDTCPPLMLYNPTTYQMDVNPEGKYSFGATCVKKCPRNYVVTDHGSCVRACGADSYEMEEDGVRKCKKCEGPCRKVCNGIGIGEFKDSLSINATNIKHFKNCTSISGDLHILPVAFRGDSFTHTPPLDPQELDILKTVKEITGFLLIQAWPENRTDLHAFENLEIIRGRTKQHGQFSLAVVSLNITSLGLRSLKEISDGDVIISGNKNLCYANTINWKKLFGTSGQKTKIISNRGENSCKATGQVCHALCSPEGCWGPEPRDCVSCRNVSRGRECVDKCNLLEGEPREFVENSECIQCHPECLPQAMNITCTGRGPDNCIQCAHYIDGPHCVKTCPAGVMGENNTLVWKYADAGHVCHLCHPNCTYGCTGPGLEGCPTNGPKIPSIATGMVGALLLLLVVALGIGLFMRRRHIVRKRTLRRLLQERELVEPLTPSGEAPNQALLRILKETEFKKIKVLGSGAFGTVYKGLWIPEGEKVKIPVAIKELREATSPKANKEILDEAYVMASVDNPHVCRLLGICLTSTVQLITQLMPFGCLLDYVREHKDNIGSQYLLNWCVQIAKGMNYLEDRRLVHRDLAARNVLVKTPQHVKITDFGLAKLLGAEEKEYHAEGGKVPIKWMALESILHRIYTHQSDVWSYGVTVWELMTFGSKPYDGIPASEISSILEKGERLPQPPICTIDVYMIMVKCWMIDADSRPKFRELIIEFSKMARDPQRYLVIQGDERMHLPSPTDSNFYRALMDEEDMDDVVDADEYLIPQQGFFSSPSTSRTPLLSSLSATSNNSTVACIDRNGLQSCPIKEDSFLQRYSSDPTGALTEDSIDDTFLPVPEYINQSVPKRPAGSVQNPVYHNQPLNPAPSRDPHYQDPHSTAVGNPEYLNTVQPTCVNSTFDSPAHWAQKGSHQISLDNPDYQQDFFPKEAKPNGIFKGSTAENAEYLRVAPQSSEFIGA

## CCc1cc(Nc2ncc(Br)c(Nc3ccc4nccnc4c3NS(C)(=O)=O)n2)c(OC)cc1N1CCC(N2CCN(CCc3cccc4c3n(CC)c(=O)n4C3CCC(=O)NC3=O)CC2)CC1 (stereo not shown) [Compound 11, N-(6-((5-bromo-2-((4-(4-(4-(2-(1-(2,6-dioxopiperidin-3-yl)-3-ethyl-2-oxo-2,3-dihydro-1H-benzo[d]imidazol-4-yl)ethyl)piperazin-1-yl)piperidin-1-yl)-5-ethyl-2-methoxyphenyl)amino)pyrimidin-4-yl)amino)quinoxalin-5-yl)methanesulfonamide]
NCl-H292 (EGFR_WT)
  DC50: > 1000 nM
BaF3_YVMA; BaF3_YVMA, comparison with Compound A, in words
  Potency in cell growth inhibition compared with Compound A (BaF3_YVMA): significantly increased potency
BaF3_YVMA; Table 7, BaF3_YVMA cells, head prints 24 h
  GI50: 188 nM
[1]; BaF3_DTC cells (EGFR_Exon19del/T790M/C797S), compounds 24 h, western blot, read-out: BaF3_DTC DC50
  DC50: 1.2 nM
[1]; Table 5, BaF3_Del19/T790M/C797S cells, 24 h, read-out: DC50 (nM), 24 h, BaF3_Del19/T790M/C797S
  DC50: 1.2 nM
[2]; BaF3_SVD, comparison with Compound A, in words
  Potency in degrading EGFR exon20 insertion mutant form compared with Compound A (BaF3_SVD): significantly increased potency
[2]; Table 5, BaF3_SVD cells, 24 h
  DC50: 21.6 nM
